# Laboratory results published in patent US10004747B2, “Combination therapy” (Boehringer Ingelheim International GmbH, priority 2010, dated 2018).
# “Also recorded” adds a separate entry of the source. Marks after values point to notes of the source that are not given here.
# Assays:
# [1] = Linagliptin alone or with low-dose exenatide for 28 days: plasma parameters and body composition in DIO rats
# [2] = Pharmacokinetics of BI 1356 after multiple oral doses once daily for 12 days in patients with type 2 diabetes; settings: for RA, AUC (accumulation ratio) / RA, Cmax (accumulation ratio): 12 days, type 2 diabetes patients, gMean
# [3] = Day 29, DIO rats, vehicle pump + Linagliptin 3 mg/kg PO, mean ± SEM
smiles,measurement,setting,value
CC#CCn1c(N2CCC[C@@H](N)C2)nc2c1c(=O)n(Cc1nc(C)c3ccccc3n1)c(=O)n2C [BI 1356],Carcass Fat,[1]; [3],151.1 ± 7.3 g
same,Carcass Protein,[1]; [3],63.8 ± 4.0 g
same,Carcass Water,[1]; [3],212.6 ± 3.4 g
same,GLP-1 (pM),[1]; [3],5.72 ± 0.9^b pM
same,Glucose,[1]; [3],8.72 ± 0.22 mM
same,Insulin,[1]; [3],1.82 ± 0.36 ng/mL
same,Leptin,[1]; [3],23.9 ± 2.5 ng/mL
same,augmentation of the effect of a low dose of exenatide,"[1]; linagliptin 3 mg/kg po in combination with exenatide 3 μg/kg/day sc, 28 days, DIO rats",does not augment the effect of a low dose of exenatide
same,"effect on body weight, daily food intake, plasma glucose, insulin or carcass fat compared to vehicle-treated controls","[1]; rat, in vivo",no effect
same,"RA, AUC (accumulation ratio)",[2]; 1 mg once daily oral,2.03
same,"RA, Cmax (accumulation ratio)",[2]; 1 mg once daily oral,1.44
same,"RA, AUC (accumulation ratio)",[2]; 2.5 mg once daily oral,1.37
same,"RA, Cmax (accumulation ratio)",[2]; 2.5 mg once daily oral,1.25
same,"RA, AUC (accumulation ratio)",[2]; 5 mg once daily oral,1.33
same,"RA, Cmax (accumulation ratio)",[2]; 5 mg once daily oral,1.33
same,"RA, AUC (accumulation ratio)",[2]; 10 mg once daily oral,1.18
same,"RA, Cmax (accumulation ratio)",[2]; 10 mg once daily oral,1.40
same,excretion via the kidney,[2]; therapeutic oral dose levels,< 7 % of the administered oral dose
same,main route of excretion,[2]; therapeutic oral dose levels,mainly excreted via the liver; also recorded: primarily excreted unchanged via the bile
same,body weight from day 11 after exenatide treatment,"BI 1356 3 mg/kg po from Day 11 after exenatide 30 μg/kg/day Day 1-10, DIO rats, vs vehicle control",stabilize their body weight at the new weight level
same,less fat put on than vehicle-treated counterparts during exenatide withdrawal,"linagliptin 3 mg/kg po after exenatide withdrawal, DIO rats, p=0.07",10.6%
same,body fat weight regain after GLP-1R agonist cessation,"replacement of exenatide 30 μg/kg/day (Day 1-10) with linagliptin 3 mg/kg po from Day 11, DIO rats",prevents body fat weight regain
